Source: US8575351B2, “Active metabolite of a thrombin receptor antagonist” (Merck Sharp & Dohme Corp., priority 2009, dated 2013)
“Also recorded” adds a separate entry of the source.

Experiments:
[1] = Rising single dose study: LC-MS profiling of SCH 530348 metabolites in plasma and urine; assay type: in vivo, human; settings: for Amount detected in urine (LC-MS): 0-24 hr urine after single 40-mg SCH 530348, humans; for Matrix in which metabolite was detected: single oral 20 and 40 mg SCH 530348, healthy male volunteers, plasma and urine extracts; for Amount detected in plasma (LC-MS): first 6-hr period after single 20- or 40-mg SCH 530348, humans
Text: Phase I clinical studies were designed to evaluate the pharmacokinetics of SCH 530348 in healthy subjects after rising single and multiple doses. The studies included a randomized, evaluator-blind, placebo-controlled, rising single dose (“RSD”) study and a rising multiple dose (“RMD”) study of orally administered SCH 530348 in healthy subjects.
In the single-dose study, 50 healthy males were enrolled into 6 sequential cohorts and randomized to receive in ascending dose manner placebo (n=2-3/group) or oral SCH 530348 (0.25, 1, 5, 10, 20 and 40 mg; n=5-6/group). The objective of this study was to qualitatively assess SCH 530348 metabolites in selected plasma and urine samples following administration of a single oral dose (20 mg or 40 mg, Groups 5 and 6, respectively) of SCH 530348 to healthy male human subjects. Plasma samples from subjects receiving 20 mg and 40 mg of SCH 530348 or placebo were profiled using liquid chromatography-mass spectrometry (“LC-MS”). Only urine samples from 40 mg dose group were profiled. Corresponding plasma and urine LC-MS profiles from the drug- and placebo-dosed subjects were compared to distinguish the drug-derived components from the endogenous material. Next, metabolites were further characterized using liquid chromatography-tandem mass spectrometry (“LC-MS/MS”) methods. Pathways involved in metabolism of SCH 530348 in humans were proposed.
The samples were analyzed using LC-MS System B comprised of TSQ Quantum (Thermo Electron Corp., San Jose, Calif.) operating in a positive electrospray ionization mode, HPLC module Alliance 2695 (Waters, Corp., Milford, Mass.), and flow scintillation analyzer 500TR Series (PerkinElmer Life and Analytical Sciences, Inc., Boston, Mass.).
The clinical phase of the study was conducted at Pharma Bio-Research Group B.V. (Zuidlaren, The Netherlands). Selected plasma and urine samples from Group 5 (20 mg dose and placebo) and Group 6 (40 mg dose and placebo) were shipped and received frozen at Schering-Plough Research Institute (“SPRI”). The samples were stored at −20±10° C. until processing and analysis for metabolites.
Plasma samples from subjects dosed with SCH 530348 or with placebo, in the […], were pooled as summarized in the following table.
To determine extraction efficiency, all available pre-dose plasma from subjects dosed with SCH 530348 (40-mg dose group) was also pooled across subjects. A 2.0 mL aliquot of plasma was spiked with 10 μL of a system suitability mixture (“SSM”) [SCH 530348 and ^14C-SCH 530348 (combined concentration 40 ng/μL, 5000 DPM/μL), SCH 540679 (40 ng/μL), and SCH 609528 (40 ng/μL)] and processed by solvent extraction with protein precipitation. After extracting once with three volumes of acetonitrile, the supernatant was concentrated and reconstituted in dimethylsulfoxide (˜50% of final sample volume) followed by the addition of 1/1 mixture of mobile phases A and B. Following centrifugation, a sample aliquot was analyzed by liquid chromatography-mass spectrometry/flow scintillation analysis (LC-MS/FSA).
A similar procedure was used to process all plasma samples from the drug- or placebo-administered subjects (20- and 40-mg dose groups), and an aliquot of each reconstituted extract was injected for LC-MS analysis. Targeted LC-MS/MS analysis to confirm the presence of metabolites and characterize their structures was also performed.
Urine samples collected during the first 24-hr period post 40-mg dose were pooled across all SCH 530348-dosed subjects (n=5) and across placebo subjects (n=3). Five milliliters of urine (20% of available urine) were pooled from each subject.
To determine the extraction efficiency, 10% of available pre-dose urine from subjects to be dosed with SCH 530348 was also pooled across the subjects. An aliquot (ca. 3.15 mL) was spiked with 15 μL of SSM and extracted by solid-phase extraction. The urine sample was loaded onto a conditioned Sep-Pak Vac tC18 (Waters Corp.) cartridge and washed with water. […]

[2] = biological target: T1, thrombin receptor (Homo sapiens, UniProt P25116); test: Calcium transient assay (human coronary artery smooth muscle cells, TK-induced calcium efflux); assay type: cell-based
T1 construct: human coronary artery smooth muscle cell assay measuring effects on thrombin receptor agonist peptide; endogenous in cells; host or cells: human coronary artery smooth muscle cells
T1 sequence (P25116 22-425): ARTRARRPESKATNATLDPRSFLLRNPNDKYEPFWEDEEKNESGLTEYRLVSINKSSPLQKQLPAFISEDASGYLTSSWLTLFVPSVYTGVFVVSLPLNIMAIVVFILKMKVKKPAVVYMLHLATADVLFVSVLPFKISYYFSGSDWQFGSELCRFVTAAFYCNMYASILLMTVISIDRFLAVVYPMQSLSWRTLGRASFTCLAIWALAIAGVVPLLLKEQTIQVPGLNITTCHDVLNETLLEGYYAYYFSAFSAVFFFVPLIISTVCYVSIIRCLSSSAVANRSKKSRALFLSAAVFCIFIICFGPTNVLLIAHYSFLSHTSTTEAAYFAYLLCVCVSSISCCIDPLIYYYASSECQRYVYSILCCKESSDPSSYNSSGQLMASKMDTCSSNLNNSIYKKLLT
Procedure: Upon analysis, it was determined that, unlike the other detected metabolites, the concentration of the M20 metabolite in the blood was sufficient for it to be considered a “major metabolite.” That finding triggered an evaluation of its activity. In order to assess activity, SCH 530348 and the M20 metabolite were subjected to a human coronary artery smooth muscle cell assay measuring effects on thrombin receptor agonist peptide TFLLRNPNDK-NH2 (“TK”) on calcium efflux (“the calcium transient assay”).

[3] = Animal study, M20 formation and exposure multiples in rabbits; assay type: in vivo
Procedure: (§1) Exposure multiples exceeded 10 in monkeys after a single dose at 0.5 mg/kg, 25 in mice after a single dose at 75 mg/kg, and 50 in female rabbits on day 7 after multiple daily doses at 20 mg/kg.

[4] = Animal study, M20 exposure multiples in mice; assay type: in vivo; settings: single dose at 75 mg/kg
Procedure: as §1

[5] = Animal study, M20 exposure multiples in monkeys; assay type: in vivo; settings: single dose at 0.5 mg/kg
Procedure: as §1

[6] = Blood levels in placebo-controlled safety study of SCH 530348 in non-urgent PCI subjects; assay type: in vivo, human
Text: In a multi-center, randomized, double-blind, placebo-controlled study to evaluate the safety of SCH 530348 in subjects undergoing non-urgent percutaneous coronary intervention (“PCI”), blood samples were taken on days 15, 31, 60, 75, and 91. A steady state blood level concentration of SCH 530348 was reached by day 31. By day 31, the M20 metabolite was present in the blood at levels of 30-40% of those of the parent (SCH 530348).

| Structure (SMILES) | Amount detected in urine (LC-MS) [1] | Matrix in which metabolite was detected [1] | Amount detected in plasma (LC-MS) [1] | IC50 ([2]; agonist peptide TFLLRNPNDK-NH2 (TK)) | Exposure multiples ([3]; female rabbits, day 7 after multiple daily doses at 20 mg/kg) | Formation of metabolite in animals ([3]; rabbits, after both single and multiple doses) | Exposure multiples [4] | Exposure multiples [5] | Blood level as % of that of the parent (SCH 530348) ([6]; by day 31) | IC50 ([2]; agonist peptide […]-NH2 (TK)) | Time to steady state blood level concentration ([6]; blood samples on days 15, 31, 60, 75, 91) |
| --- | --- | --- | --- | --- | --- | --- | --- | --- | --- | --- | --- |
| C[C@H]1OC(=O)[C@@H]2C[C@@H]3C[C@H](NC(=O)OCC(=O)O)CC[C@H]3[C@H](/C=C/c3ccc(-c4cccc(F)c4)cn3)[C@H]12 [Metabolite M16, [[[[(1R,3aR,4aR,6R,8aR,9S,9aS)-9-[(E)-2-[5-(3-fluorophenyl)-2-pyridinyl]ethenyl]dodecahydro-1-methyl-3-oxonaphtho[2,3-c]furan-6-yl]amino]carbonyl]oxy]acetic acid] | minor to trace levels | Urine | – | – | – | – | – | – | – | – | – |
| C[C@H]1OC(=O)[C@@H]2C[C@@H]3C[C@H](N)CC[C@H]3[C@H](/C=C/c3ccc(-c4cccc(F)c4)cn3)[C@H]12 [Metabolite M19, (3R,3aS,4S,4aR,7R,8aR,9aR)-7-amino-4-[(E)-2-[5-(3-fluorophenyl)-2-pyridinyl]ethenyl]-decahydro-3-methylnaphtho[2,3-c]furan-1(3H)-one] | minor to trace levels | Plasma,; also recorded: Urine | Trace amounts | – | – | – | – | – | – | – | – |
| C[C@H]1OC(=O)[C@@H]2C[C@@H]3C[C@H](NC(=O)OCCO)CC[C@H]3[C@H](/C=C/c3ccc(-c4cccc(F)c4)cn3)[C@H]12 [Metabolite M20, 2-hydroxyethyl(1R,3aR,4aR,6R,9S,9aS)-9-{(E)-2(5-(3-fluorophenyl)pyridine-2-yl)vinvl}-1-methyl-3-oxododecahydronaphtho[2,3-c]furan-6ylcarbamate] | – | Plasma | Trace amounts | 3.4 nM | > 50 | formed | > 25 | exceeded 10 | 30-40% | – | – |
| CCOC(=O)N[C@@H]1CC[C@@H]2[C@@H](C1)C[C@H]1C(=O)O[C@H](C)[C@H]1[C@H]2/C=C/c1ccc(-c2cccc(F)c2)cn1 [SCH 530348, Ethyl[(1R,3aR,4aR,6R,8aR,9S,9aS)-9-[(E)-2-[5-(3-fluorophenyl)-2-pyridinyl]ethenyl]dodecahydro-1-methyl-3-oxonaphtho[2,3-c]furan-6-yl]carbamate, reference compound] | not detected | – | primary circulating component | – | – | – | – | – | – | 4.5 nM | ≤ 31 days |
